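Cultured in 96-well plates, cells were exposed to test compound for 48 hours across five concentrations. The concentration for full growth arrest is given as TGI.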
Key:
Experiment in all cases: DTP human tumour cell line panel, 48 h
RPMI-8226 leukemia = system: RPMI-8226 leukemia
NCI-H522 lung = system: NCI-H522 lung
HS 578T breast = system: HS 578T breast
MALME-3M melanoma = system: MALME-3M melanoma
OVCAR-8 ovarian = system: OVCAR-8 ovarian
TK-10 renal = system: TK-10 renal
K-562 leukemia = system: K-562 leukemia
KM12 colon = system: KM12 colon
NCI-H23 lung = system: NCI-H23 lung
UO-31 renal = system: UO-31 renal
UACC-62 melanoma = system: UACC-62 melanoma
786-0 renal = system: 786-0 renal
SF-539 CNS = system: SF-539 CNS
UACC-257 melanoma = system: UACC-257 melanoma
CCRF-CEM leukemia = system: CCRF-CEM leukemia
OVCAR-3 ovarian = system: OVCAR-3 ovarian
MDA-MB-435 = system: MDA-MB-435

With COc1ccc(OC)c(N=Cc2cc(OC)c(OC)c(OC)c2)c1 the TGI (RPMI-8226 leukemia) was greater than 76.6 µM, the TGI (NCI-H522 lung) was 57.7 µM and the TGI (HS 578T breast) was greater than 100 µM. It also gave a TGI (MALME-3M melanoma) greater than 100 µM, a TGI (OVCAR-8 ovarian) greater than 100 µM and a TGI (TK-10 renal) greater than 100 µM. The TGI (K-562 leukemia) was greater than 100 µM, the TGI (KM12 colon) was greater than 100 µM and the TGI (NCI-H23 lung) was greater than 100 µM. For the same compound, the TGI (UO-31 renal) was greater than 100 µM, the TGI (UACC-62 melanoma) was greater than 100 µM and the TGI (786-0 renal) was greater than 100 µM. It also gave a TGI (SF-539 CNS) greater than 100 µM, a TGI (UACC-257 melanoma) greater than 100 µM and a TGI (CCRF-CEM leukemia) of 66.4 µM. For the same compound, the TGI (OVCAR-3 ovarian) was greater than 40.3 µM and the TGI (MDA-MB-435) was greater than 76.2 µM.
